Patent US7476691B2, “Sulfamate benzothiophene derivatives as steroid sulfatase inhibitors” (Laboratoire Theramex, priority 2003, dated 2009)

Experiments:
[1] = test system: prepubescent female rats; experiment: Residual estrogenic activity in vivo (uterotrophic assay); settings: prepubescent female rats, oral, 1 mg/rat/day for 3 days
Method: These compounds were checked for residual estrogenic activity in vivo in the classical uterotrophic assay after 3-day administration by oral route in prepubescent female rats.
Prepubescent female rats were orally treated at 1 mg/rat/day for 3 days. On the day following the last treatment, uteri were removed and wet weight were recorded.
The results are expressed as % of stimulation of uterus weight in comparison with controls.

[2] = test system: ovariectomized Wistar female rats; experiment: Antiuterotrophic/antisulfatase activity: inhibition of E1S stimulated uterus weight; type: in vivo, rat
Method: A short model, derived from Purohit's method, was developed for the evaluation in vivo of nonestrogenic steroid sulfatase inhibitors.
Wistar female rats were ovariectomized and left to rest for 4 weeks. Prior to treatment, the absence of cyclicity was checked by vaginal smears.
Animals were supplemented with estrone sulfate (E1S) at 50 μg/kg/day s.c., alone or combined with oral administration of potential sulfatase inhibitors, at 1 mg/kg/day for 4 days. The uteri were removed, freed of adjacent tissue and wet weighed.
The results are expressed as % of inhibition of the E1S induced stimulation.
The activity of Ex 55 on E1S stimulated uterus weight was evaluated in relation to the standard inhibitor 6,6,7 COUMATE from 0.03 mg/kg/day to 1 mg/kg/day p.o.
(§1) In this study, a last administration was performed 24 hours before the necropsy for E1S and E2 serum levels assays. The uteri were removed, freed of adjacent tissue, wet weighed and immediately deep frozen until the determination of sulfatase activity.

[3] = molecular target: T1, steroid sulfatase (Homo sapiens, UniProt P08842); experiment: Xenograft steroid sulfatase activity; type: in vivo, mouse; settings: oral 0.1 mg/kg/day for 6 weeks
T1 construct: from tissue; host or cells: MCF-7 xenograft tumour removed from athymic nude mice
T1 sequence (P08842 22-583): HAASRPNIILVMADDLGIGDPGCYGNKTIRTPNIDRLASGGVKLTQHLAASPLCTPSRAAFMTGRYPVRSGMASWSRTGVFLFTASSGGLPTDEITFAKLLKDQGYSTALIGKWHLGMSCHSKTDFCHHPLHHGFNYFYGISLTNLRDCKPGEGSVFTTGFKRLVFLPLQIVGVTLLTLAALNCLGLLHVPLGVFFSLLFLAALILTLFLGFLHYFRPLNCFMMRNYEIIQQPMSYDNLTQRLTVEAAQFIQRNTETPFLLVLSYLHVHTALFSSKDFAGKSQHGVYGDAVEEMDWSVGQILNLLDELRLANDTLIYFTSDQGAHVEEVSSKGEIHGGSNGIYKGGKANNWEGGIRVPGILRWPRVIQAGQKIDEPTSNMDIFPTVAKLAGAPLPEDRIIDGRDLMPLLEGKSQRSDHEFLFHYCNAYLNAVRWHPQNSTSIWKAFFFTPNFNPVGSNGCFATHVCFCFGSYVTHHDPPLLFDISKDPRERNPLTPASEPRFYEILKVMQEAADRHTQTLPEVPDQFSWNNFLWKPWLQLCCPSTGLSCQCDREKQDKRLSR
Method: (§2) MCF-7 cells, derived from human breast adenocarcinoma, were injected subcutaneously in ovariectomized athymic nude mice supplemented with estrone sulfate (pellets 0.5 mg/90 day release). Xenograft volumes were determined once weekly. When tumor volumes reached a significant increase, 6,6,7 COUMATE and Ex 55 were orally administered at 0.1 mg/kg/day for 6 weeks.
(§3) Xenografts were measured, removed, weighed, and deep frozen until the determination of steroid sulfatase activity.

[4] = molecular target: T2, estrone sulfatase (Rattus norvegicus, UniProt P15589); experiment: Estrone sulfatase activity in the uterus of treated rats; type: in vivo
T2 construct: uteri were thawed, weighed and homogenized; from tissue; host or cells: uterus of animals dosed orally (ex vivo homogenate supernatant)
T2 sequence (P15589 20-577): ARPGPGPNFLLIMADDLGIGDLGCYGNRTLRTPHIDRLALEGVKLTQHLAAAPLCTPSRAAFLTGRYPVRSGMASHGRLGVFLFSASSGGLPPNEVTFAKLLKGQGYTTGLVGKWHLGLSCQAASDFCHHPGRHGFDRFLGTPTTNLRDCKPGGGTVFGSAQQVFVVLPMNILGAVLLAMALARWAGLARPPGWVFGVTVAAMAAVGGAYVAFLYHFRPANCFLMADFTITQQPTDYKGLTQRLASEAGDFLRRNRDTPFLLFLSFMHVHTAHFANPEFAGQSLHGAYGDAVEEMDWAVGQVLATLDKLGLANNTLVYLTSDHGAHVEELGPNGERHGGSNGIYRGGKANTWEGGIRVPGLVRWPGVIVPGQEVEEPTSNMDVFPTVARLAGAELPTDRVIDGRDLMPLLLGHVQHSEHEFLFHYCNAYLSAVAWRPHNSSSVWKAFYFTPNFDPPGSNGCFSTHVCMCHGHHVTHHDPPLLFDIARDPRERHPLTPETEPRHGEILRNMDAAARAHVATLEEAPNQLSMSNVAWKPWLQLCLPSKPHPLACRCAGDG
Method: as §1
Estrone sulfatase activity was measured according to the method described by Purohit et al., with slight modifications. Briefly, uteri were thawed, weighed and homogenized. Aliquots of the supernatant were treated with dextran-coated charcoal and assayed for sulfatase. E1S activity was assessed after 30 min of incubation with 5 nM of ^3H-E1S and 20 μM of unlabelled E1S as substrate. Radioactivity was measured by LSC.
Estrone sulfatase activity was expressed as pmol/h/mg protein and reported as percentage of inhibition versus E1S.

[5] = Serum estrogen levels (E1S and E2) in treated rats; type: in vivo, rat; settings: 24 h after last administration
Method: as §1
E1S and E2 levels were determined according to the supplier's standard method (DSL, Webster, Tex., USA).

[6] = test system: MCF-7 cells; experiment: Hormono-dependent induced MCF-7 xenografts: volume and weight; type: in vivo, mice; settings: oral 0.1 mg/kg/day for 6 weeks
Method: as §2, §3

[7] = MCF-7 xenografts, nude mice with E1S pellet

Q: Which results are given for `NS(=O)(=O)Oc1ccc2c3c(c(=O)oc2c1)CCCCC3` [6,6,7-COUMATE, reference compound]?
A: % stimulation of uterus weight in comparison with controls [1]: 3%; Inhibition of E1S stimulated uterus weight ([2]; 0.03 mg/kg/day p.o.): 0%; Inhibition of E1S stimulated uterus weight ([2]; 0.1 mg/kg/day p.o.): 13%; Inhibition of E1S stimulated uterus weight ([2]; 0.3 mg/kg/day p.o.): 52%; Inhibition of E1S stimulated uterus weight ([2]; 1 mg/kg/day p.o.): 84%; % inhibition of the E1S induced stimulation (uterus weight) ([2]; ovariectomized rats, E1S 50 μg/kg/day s.c., compound oral 1 mg/kg/day for 4 days): 86%; Xenograft steroid sulfatase activity ([3]; MCF-7 xenografts): 540 ± 54 pmol/h/mg protein; inhibition at 0.1 mg/kg/day ([3]; read-out: inhibition of intratumoral steroid sulfatase activity): 67%; Estrone sulfatase activity in the uterus, percentage of inhibition versus E1S ([4]; 0.03 mg/kg/day p.o.): 36%; Estrone sulfatase activity in the uterus, percentage of inhibition versus E1S ([4]; 0.1 mg/kg/day p.o.): 78%; Estrone sulfatase activity in the uterus, percentage of inhibition versus E1S ([4]; 0.3 mg/kg/day p.o.): 96%; Estrone sulfatase activity in the uterus, percentage of inhibition versus E1S ([4]; 1 mg/kg/day p.o.): 97%; E1S levels (serum) ([5]; 0.03 mg/kg/day p.o.): 24 ± 3.1 ng/mL; E2 levels (serum) ([5]; 0.03 mg/kg/day p.o.): 33 ± 5.8 pg/mL; E1S levels (serum) ([5]; 0.1 mg/kg/day p.o.): 26 ± 2.6 ng/mL; E2 levels (serum) ([5]; 0.1 mg/kg/day p.o.): 28 ± 2.5 pg/mL; E1S levels (serum) ([5]; 0.3 mg/kg/day p.o.): 59 ± 6.4 ng/mL; E2 levels (serum) ([5]; 0.3 mg/kg/day p.o.): 18 ± 1.1 pg/mL; E1S levels (serum) ([5]; 1 mg/kg/day p.o.): 80 ± 5.7 ng/mL; E2 levels (serum) ([5]; 1 mg/kg/day p.o.): 16 ± 1.5 pg/mL; Xenograft volume after 6 week treatment [6, 7]: 1854 ± 243 mm^3; Xenograft weight after 6 week treatment [6, 7]: 1467 ± 191 mg; inhibition of the E1S induced stimulation (xenograft volume) [6]: did not inhibit; inhibition of xenograft weight [6]: did not inhibit
